Key:
[1] = test system: metabolism of retinoic acid in human breast cancer cells; test: Inhibition of retinoic acid (RA) metabolism (Example C.1); format: cell-based; details: MCF-7 human breast cancer cells, 3H-RA as substrate; concentration needed to reduce the amount of metabolites to 50% of the control
Description: The property to delay the metabolism of retinoic acid can be evidenced in various in vitro and in vivo experiments. A particular in vitro procedure is described in example C.1 and tests the inhibitory activity of the compounds of formula (I) on the metabolism of retinoic acid in human breast cancer cells. The compounds of the present invention were also effective in suppressing induced vaginal keratinization effects in ovariectomized rats as is described in example C.2.
Inhibition of Retinoic Acid (RA) Metabolism
MCF-7 human breast cancer cells were grown as stock cultures according to art-known protocols. One day before the experiment, RA is added to the stock cultures to stimulate RA-metabolism. At the start of the experiment, cell suspensions were incubated in a tissue culture medium containing ^3H-RA as the substrate. Different concentrations of the test compound (dissolved in 1% DMSO) were added to the incubation mixtures, and at the end of the incubation, the unmetabolized RA is separated from its polar metabolites. The fraction containing the polar ^3H-labelled metabolites was collected and counted in a scintillation counter. For each experiment, a control and a blank incubation were run in parallel. Table 22 list the IC50 value (defined as the concentration in M needed to reduce the amount of metabolites to 50% of the control).

Ovariectomized rats = test: Vaginal keratinization test on ovariectomized rats (Example C.2); format: in vivo; details: estradiol undecylate induced keratinization, per os once daily on days 1-3, active dose = 50% of rats show complete suppression
In short: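 Value is the lowest oral dose (mg/kg) at which half of tested rats show complete suppression of estradiol undecylate-induced vaginal keratinization by histology. Ovariectomized rats received 100 μg/100 g estradiol undecylate s.c., then compound or PEG 200 vehicle p.o. daily for three days; sacrifice one day later.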

SMILES	IC50 [1] [nM]	LAD (lowest active dose) (Ovariectomized rats) [mg/kg]
COc1cc(CC(=O)Nc2ccc(C(C(C)N(C)C)n3cncn3)cc2)ccc1Cl (single isomer, unassigned) [Compound 297]	0.786	>2.50
CC(C)C(c1ccc(NC(=O)CSc2ccncc2)cc1)n1ccnc1 (racemic) [Compound 239]	0.728	10.00
CCCOc1ccc(CC(=O)Nc2ccc(C(C(CC)CC)n3ccnc3)cc2)cc1 (racemic) [Compound 93]	1.59	2.50
CC(C)C(c1ccc(NC(=O)c2cnccn2)cc1)n1ccnc1 (racemic) [Compound 170]	12.2	10.00
CCCC(CCC)C(c1ccc(NC(=O)/C(C)=C/c2ccccc2)cc1)n1ccnc1 (stereo not drawn) [Compound 486]	27.7	5.00
CC(C)C(c1ccc(NC(=O)Cc2cccs2)cc1)n1ccnc1 (racemic) [Compound 244]	2.3	10.00
CC(C)C(c1ccc(NC(=O)Nc2cccc(F)c2)cc1)n1cncn1 (racemic) [Compound 725]	3.29	5.00
CCC(CC)C(c1ccc(NC(=O)Cc2ccc3nc(N)sc3c2)cc1)n1cncn1 (stereo not drawn) [Compound 13]	0.0357	>2.50
CC(C)C(c1ccc(NC(=O)C(F)=Cc2ccccc2)cc1)n1cncn1 (racemic) [Compound 160]	86.5	10.00
CCC(CC)C(c1ccc(NC(=O)C(O)c2ccc(Cl)cc2)cc1)n1cncn1 (racemic) [Compound 18, (±)-(A2)-4-chloro-N-[4-[2-ethyl)-1-(1H-1,2,4-triazol-1-yl)butyl]phenyl]-α-hydroxybenzeneacetamide]	0.872	2.50
C/C(=C\c1ccco1)C(=O)Nc1ccc(C(C(C)C)n2ccnc2)cc1 (racemic) [Compound 594]	4.81	>10.00
CC(C)C(c1ccc(NC(=O)Nc2cccc(F)c2)cc1)n1ccnc1 (racemic) [Compound 741]	1.44	10.00
CC(=CCCc1ccccc1)C(=O)Nc1ccc(C(C(C)C)n2ccnc2)cc1 (racemic) [Compound 587]	31.6	>10.00
O=C(Nc1ccc(C(c2ccccc2)n2ccnc2)cc1)c1cnccn1 (racemic) [Compound 424]	> 100	>10.00
CC(C)C(c1ccc(NC(=O)C2CCc3ccccc3O2)cc1)n1ccnc1 (stereo not drawn) [Compound 217]	5.14	10.00
CC(C)C(c1ccc(NC(=O)NCc2ccccc2)cc1)n1ccnc1 (stereo not drawn) [Compound 269]	2.66	>10.00
CCOc1ccc(CC(=O)Nc2ccc(C(C(C)N(C)C)n3cncn3)cc2)cc1OCC (single isomer, unassigned) [Compound 293]	6.53	>2.50
CC(C)CCC(c1ccc(NC(=O)Cc2ccc(Cl)cc2)cc1)n1ccnc1 (stereo not drawn) [Compound 355]	> 100	>10.00
C/C(=C\c1ccccc1)C(=O)Nc1ccc(C(C(c2ccccc2)c2ccccc2)n2ccnc2)cc1 (racemic) [Compound 485]	> 100	5.00
CC(=O)Nc1ccc(C2(n3ccnc3)CCCCC2)cc1 [Compound 776]	4.39	>20.00
CCOc1ccc(CCC(=O)Nc2ccc(C(C(CC)CC)n3ccnc3)cc2)cc1 (single isomer, unassigned) [Compound 61]	0.734	2.50
CCC(CC)C(c1ccc(NC(=O)C2=COc3ccccc3O2)cc1)n1ccnc1 (racemic) [Compound 25]	61	10.00
CC(C)C(c1ccc(NC(=O)CNC(=O)OCc2ccccc2)cc1)n1ccnc1 (racemic) [Compound 262]	7.48	20.00
CC(=Cc1ccccc1)C(=O)Nc1ccc(C(C)(C)n2ccnc2)cc1 [Compound 753]	> 100	>10.00
CCC(CC)C(c1ccc(NC(=O)Cc2ccc(Cl)cc2)cc1)n1cncn1 (racemic) [Compound 66]	0.356	2.50
CC(C)C(c1ccc(NC(=O)/C=C/c2ccccc2)cc1)n1cncn1 (racemic) [Compound 155]	50.1	>10.00
C/C(=C\c1ccccc1)C(=O)Nc1ccc(C(/C=C/C(C)C)n2ccnc2)cc1 (stereo not drawn) [Compound 479]	> 100	>10.00
COc1ccc(NC(=O)Nc2ccc(C(C(C)C)n3ccnc3)cc2)cc1 (racemic) [Compound 722]	4.14	5.00
C/C(=C\c1ccsc1)C(=O)Nc1ccc(C(C(C)C)n2ccnc2)cc1 (racemic) [Compound 596]	7.92	10.00
CC(C)C(c1ccc(NC(=O)c2ccc3c(c2)CCC(=O)N3)cc1)n1ccnc1 (racemic) [Compound 205]	11.7	>10.00

Second part, led by results:

IC50 [1] [nM]	SMILES	LAD (lowest active dose) (Ovariectomized rats) [mg/kg]
4.25	CCC(C)C(c1ccc(NC(=O)C(C)=Cc2ccccc2)cc1)n1ccnc1 (mixture of isomers) [Compound 480]	10.00
39.8	CCC(CC)C(c1ccc(NC(=O)Cc2ccc(C)c(OC)c2)cc1)n1cncn1 (single isomer, unassigned) [Compound 783]	5.00
42.3	C/C(=C\c1cccc(Cl)c1)C(=O)Nc1ccc(C(C(C)C)n2ccnc2)cc1 (racemic) [Compound 577]	10.00
25.8	CCC(CC)C(c1ccc(NC(=O)c2ccc3c(c2)C(C)(C)CCC3(C)C)cc1)n1ccnc1 (racemic) [Compound 30]	>5.00
1.44	CCC(CC)C(c1ccc(NC(=O)Cc2ccccc2O)cc1)n1ccnc1 (racemic) [Compound 107]	>2.50
1.48	CC(C)C(c1ccc(NC(=O)c2ccc(Br)o2)cc1)n1ccnc1 (racemic) [Compound 220]	20.00
7.75	CNC(=O)Nc1ccc(C(C(C)C)n2ccnc2)cc1 (stereo not drawn) [Compound 267]	>10.00
44.3	CC(C)C(c1ccc(NC(=O)C2(c3ccccc3)CCCCC2)cc1)n1ccnc1 (stereo not drawn) [Compound 200]	>10.00
18.7	C/C(=C\c1ccccc1)C(=O)Nc1ccc(C(C2CCCC2)n2ccnc2)cc1 (racemic) [Compound 470]	>20.00
> 100	C/C(=C\c1ccccc1)C(=O)N(C)c1ccc(C(C(C)C)n2ccnc2)cc1 (racemic) [Compound 421]	>10.00
0.0181	CCOc1cc(CC(=O)Nc2ccc(C(C(CC)CC)n3ccnc3)cc2)ccc1OCc1ccccc1 (stereo not drawn) [Compound 128]	5.00
34	CC(C)C(c1ccc(NC(=O)C(c2ccccc2)C2CCCCC2)cc1)n1ccnc1 (mixture of isomers) [Compound 661]	>10.00
1.25	CC(C(c1ccc(NC(=O)Cc2ccc(Cl)cc2)cc1)n1ccnc1)N(C)C (single isomer, unassigned) [Compound 367]	2.50
< 0.01	CCC(CC)C(c1ccc(NC(=O)Cc2ccc3nc(N)sc3c2)cc1)n1ccnc1 (racemic) [Compound 58]	5.00
35.5	CC(=Cc1ccccc1)C(=O)Nc1ccc(C(CC(C)(C)C)n2ccnc2)cc1 (stereo not drawn) [Compound 476]	>10.00
1.41	CCC(C)C(c1ccc(NC(=O)Cc2ccc(Cl)cc2)cc1)n1ccnc1 (racemic) [Compound 364]	2.50
1.86	COc1ccc(C(=O)Nc2ccc(C(C(C)C)n3ccnc3)cc2)cc1OC (racemic) [Compound 231]	>10.00
2.11	CC(C)C(c1ccc(NC(=O)Cc2ccc([N+](=O)[O-])cc2)cc1)n1ccnc1 (stereo not drawn) [Compound 151]	5.00
1.86	CC(C)C(c1ccc(NC(=O)Cc2ccc(N)c(I)c2)cc1)n1ccnc1 (stereo not drawn) [Compound 148]	>5.00
7.4	CCOC(=O)Nc1ccc(C(C(C)C)n2ccnc2)cc1 (stereo not drawn) [Compound 183]	>10.00
15.9	C/C(=C\c1ccccc1)C(=O)Nc1ccc(C(CC(C)C)n2ccnc2)cc1 (racemic) [Compound 474]	>10.00

— patent US7179825B2, “Retinoic acid mimetic anilides” (Janssen Pharmaceutica N.V., priority 1997, dated 2007)
